Starred links: 1 amine or outer side, 2 acyl side, 3 side chain; linkers in the order of their positions; H or OH if unused. Positions of bridges follow the written chain, without caps; N, C: chain ends. Non-standard residues stand in square brackets, D forms with d. Residues, ends and D or L forms follow the SMILES beside them. Groups on a side chain read outwards from the residue. *: point of attachment. Trp(1-CH2CO2Me) = COC(=O)Cn1cc(C[C@H](N)C(=O)O)c2ccccc21; Trp(1-CH2COOH) = N[C@@H](Cc1cn(CC(=O)O)c2ccccc12)C(=O)O; NH(benzothiophen-5-yl) = c1cc2cc(N*)ccc2s1; Benzofuran(2-CO) = O=C(c1cc2ccccc2o1)*; NH(1-naphthyl) = c1ccc2c(N*)cccc2c1; 2Naphthoyl = O=C(c1ccc2ccccc2c1)*; Hyp = O=C(O)[C@@H]1C[C@@H](O)CN1; X34 = O=C(c1c2ccccc2cc2ccccc12)*; X72 = COc1ccc2nccc(C(=O)*)c2c1; NMeNle = CCCC[C@H](NC)C(=O)O; X4 = S=C(Nc1ccc2c(c1)OCCO2)*; X7 = S=C(Nc1ccc2cc[nH]c2c1)*; X12 = S=C(Nc1ccc2ccccc2c1)*; X5 = S=C(Nc1cccc2ccccc12)*; X59 = S=C(Nc1ccc2nsnc2c1)*; X48 = O=C(c1ccc2ccoc2c1)*; NMeA = CN[C@@H](C)C(=O)O; βNA = c1ccc2cc(N*)ccc2c1; Dab = NCC[C@H](N)C(=O)O; Dap = NC[C@H](N)C(=O)O; CO = O=C([*:1])[*:2]

In patent US20220389061A1, “IMMUNOMODULATORS” (priority 2019, published 2022) one finds IC50 data, which are given here for 13 compounds.

The target of one test is T1, PD-1/PD-L1 (Homo sapiens, UniProt Q9NZQ7).
T1 construct: TVMV protease site linker (C); made in house; host or cells: HEK293T cells
T1 sequence (Q9NZQ7 18-239): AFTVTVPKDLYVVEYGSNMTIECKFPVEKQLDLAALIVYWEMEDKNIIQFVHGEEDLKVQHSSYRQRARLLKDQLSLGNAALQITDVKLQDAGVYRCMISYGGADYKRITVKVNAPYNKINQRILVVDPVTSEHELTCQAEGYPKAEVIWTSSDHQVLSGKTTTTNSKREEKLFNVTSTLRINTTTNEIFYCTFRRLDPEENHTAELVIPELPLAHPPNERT
Nature of the test: PD-1/PD-L1 Homogenous Time-Resolved Fluorescence (HTRF) binding assay.
Conditions: not given
The gist of the method: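 Compounds preincubated 15 min with PD-L1-His (10 nM final), then PD-1-Ig (20 nM final) added for 15 min in dPBS with 0.1% BSA, 0.05% Tween-20. Detection by Eu-cryptate anti-Ig (1 nM) and APC anti-His (20 nM) HTRF.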
In general terms: In TR-FRET formats the signal depends on donor and acceptor labels being close together.
By IC50 is commonly meant the concentration that inhibits the measured activity by half. `CCCC[C@H]1C(=O)N(C)[C@@H](CCCC)C(=O)N[C@@H](CC(C)C)C(=O)N[C@H](C(=O)NCC(N)=O)CSCC(=O)N[C@@H](Cc2ccc(O)cc2)C(=O)N(C)[C@@H](C)C(=O)N[C@@H](CC(N)=O)C(=O)N2CCC[C@H]2C(=O)N[C@@H](CNC(=O)Nc2ccc3ccccc3c2)C(=O)N[C@@H](CC(C)C)C(=O)N2C[C@H](O)C[C@H]2C(=O)N[C@@H](Cc2c[nH]c3ccccc23)C(=O)N[C@@H](CCNC(=O)Nc2ccc3ccccc3c2)C(=O)N[C@@H](Cc2cn(CC(=O)O)c3ccccc23)C(=O)N1C` [Example 3001] ({CH2CO}-Y[NMeA]NP[Dap]([CO-βNA])L[Hyp]W[Dab]([CO-βNA])[Trp(1-CH2COOH)][NMeNle][NMeNle]LCG-NH2; thioether N-14) displayed an IC50 of 7.3 nM. In turn, `CCCC[C@H]1C(=O)N(C)[C@@H](CCCC)C(=O)N[C@@H](CC(C)C)C(=O)N[C@H](C(=O)NCC(N)=O)CSCC(=O)N[C@@H](Cc2ccc(O)cc2)C(=O)N(C)[C@@H](C)C(=O)N[C@@H](CC(N)=O)C(=O)N2CCC[C@H]2C(=O)N[C@@H](CNC(=O)Nc2cccc3ccccc23)C(=O)N[C@@H](CC(C)C)C(=O)N2C[C@H](O)C[C@H]2C(=O)N[C@@H](Cc2c[nH]c3ccccc23)C(=O)N[C@@H](CCNC(=O)Nc2cccc3ccccc23)C(=O)N[C@@H](Cc2cn(CC(=O)O)c3ccccc23)C(=O)N1C` [Example 3005] ({CH2CO}-Y[NMeA]NP[Dap]([CO-NH(1-naphthyl)])L[Hyp]W[Dab]([CO-NH(1-naphthyl)])[Trp(1-CH2COOH)][NMeNle][NMeNle]LCG-NH2; thioether N-14) displayed an IC50 of 3.2 nM.

Staying with this test, now noted: PD-L1-His 10 nM pre-incubated with inhibitor, PD-1-Ig 20 nM; read-out: HTRF IC50.
Take `CCCC[C@H]1C(=O)N(C)[C@@H](CCCC)C(=O)N[C@@H](CC(C)C)C(=O)N[C@H](C(=O)NCC(N)=O)CSCC(=O)N[C@@H](Cc2ccc(O)cc2)C(=O)N(C)[C@@H](C)C(=O)N[C@@H](CC(N)=O)C(=O)N2CCC[C@H]2C(=O)N[C@@H](CNC(=O)c2c3ccccc3cc3ccccc23)C(=O)N[C@@H](CC(C)C)C(=O)N2C[C@H](O)C[C@H]2C(=O)N[C@@H](Cc2c[nH]c3ccccc23)C(=O)N[C@@H](CCN)C(=O)N[C@@H](Cc2cn(CC(=O)O)c3ccccc23)C(=O)N1C` [Example 2015] ({CH2CO}-Y[NMeA]NP[Dap](X34)L[Hyp]W[Dab][Trp(1-CH2COOH)][NMeNle][NMeNle]LCG-NH2; thioether N-14): the IC50 was 3.2 nM. Take `CCCC[C@H]1C(=O)N(C)[C@@H](CCCC)C(=O)N[C@@H](CC(C)C)C(=O)N[C@H](C(=O)NCC(N)=O)CSCC(=O)N[C@@H](Cc2ccc(O)cc2)C(=O)N(C)[C@@H](C)C(=O)N[C@@H](CC(N)=O)C(=O)N2CCC[C@H]2C(=O)N[C@@H](CNC(=S)Nc2ccc3cc[nH]c3c2)C(=O)N[C@@H](CC(C)C)C(=O)N2C[C@H](O)C[C@H]2C(=O)N[C@@H](Cc2c[nH]c3ccccc23)C(=O)N[C@@H](CCNC(=S)Nc2ccc3cc[nH]c3c2)C(=O)N[C@@H](Cc2cn(CC(=O)O)c3ccccc23)C(=O)N1C` [Example 3002] ({CH2CO}-Y[NMeA]NP[Dap](X7)L[Hyp]W[Dab](X7)[Trp(1-CH2COOH)][NMeNle][NMeNle]LCG-NH2; thioether N-14): the IC50 is 4.3 nM.

For the compound `CCCC[C@H]1C(=O)N(C)[C@@H](CCCC)C(=O)N[C@@H](CC(C)C)C(=O)N[C@H](C(=O)NCC(N)=O)CSCC(=O)N[C@@H](Cc2ccc(O)cc2)C(=O)N(C)[C@@H](C)C(=O)N[C@@H](CC(N)=O)C(=O)N2CCC[C@H]2C(=O)N[C@@H](CNC(=O)Nc2ccc3sccc3c2)C(=O)N[C@@H](CC(C)C)C(=O)N2C[C@H](O)C[C@H]2C(=O)N[C@@H](Cc2c[nH]c3ccccc23)C(=O)N[C@@H](CCNC(=O)Nc2ccc3sccc3c2)C(=O)N[C@@H](Cc2cn(CC(=O)O)c3ccccc23)C(=O)N1C` [Example 3003] ({CH2CO}-Y[NMeA]NP[Dap]([CO-NH(benzothiophen-5-yl)])L[Hyp]W[Dab]([CO-NH(benzothiophen-5-yl)])[Trp(1-CH2COOH)][NMeNle][NMeNle]LCG-NH2; thioether N-14), the IC50 amounted to 2.3 nM. Same read-out and setting: the figure for `CCCC[C@H]1C(=O)N(C)[C@@H](CCCC)C(=O)N[C@@H](CC(C)C)C(=O)N[C@H](C(=O)NCC(N)=O)CSCC(=O)N[C@@H](Cc2ccc(O)cc2)C(=O)N(C)[C@@H](C)C(=O)N[C@@H](CC(N)=O)C(=O)N2CCC[C@H]2C(=O)N[C@@H](CNC(=S)Nc2cccc3ccccc23)C(=O)N[C@@H](CC(C)C)C(=O)N2C[C@H](O)C[C@H]2C(=O)N[C@@H](Cc2c[nH]c3ccccc23)C(=O)N[C@@H](CCNC(=S)Nc2cccc3ccccc23)C(=O)N[C@@H](Cc2cn(CC(=O)O)c3ccccc23)C(=O)N1C` [Example 3006] ({CH2CO}-Y[NMeA]NP[Dap](X5)L[Hyp]W[Dab](X5)[Trp(1-CH2COOH)][NMeNle][NMeNle]LCG-NH2; thioether N-14) is 2.8 nM; for `CCCC[C@H]1C(=O)N(C)[C@@H](CCCC)C(=O)N[C@@H](CC(C)C)C(=O)N[C@H](C(=O)NCC(N)=O)CSCC(=O)N[C@@H](Cc2ccc(O)cc2)C(=O)N(C)[C@@H](C)C(=O)N[C@@H](CC(N)=O)C(=O)N2CCC[C@H]2C(=O)N[C@@H](CNC(=S)Nc2ccc3c(c2)OCCO3)C(=O)N[C@@H](CC(C)C)C(=O)N2C[C@H](O)C[C@H]2C(=O)N[C@@H](Cc2c[nH]c3ccccc23)C(=O)N[C@@H](CCNC(=S)Nc2ccc3c(c2)OCCO3)C(=O)N[C@@H](Cc2cn(CC(=O)O)c3ccccc23)C(=O)N1C` [Example 3007] ({CH2CO}-Y[NMeA]NP[Dap](X4)L[Hyp]W[Dab](X4)[Trp(1-CH2COOH)][NMeNle][NMeNle]LCG-NH2; thioether N-14) it is 2.6 nM; for `CCCC[C@H]1C(=O)N(C)[C@@H](CCCC)C(=O)N[C@@H](CC(C)C)C(=O)N[C@H](C(=O)NCC(N)=O)CSCC(=O)N[C@@H](Cc2ccc(O)cc2)C(=O)N(C)[C@@H](C)C(=O)N[C@@H](CC(N)=O)C(=O)N2CCC[C@H]2C(=O)N[C@@H](CNC(=S)Nc2ccc3nsnc3c2)C(=O)N[C@@H](CC(C)C)C(=O)N2C[C@H](O)C[C@H]2C(=O)N[C@@H](Cc2c[nH]c3ccccc23)C(=O)N[C@@H](CCNC(=S)Nc2ccc3nsnc3c2)C(=O)N[C@@H](Cc2cn(CC(=O)O)c3ccccc23)C(=O)N1C` [Example 3008] ({CH2CO}-Y[NMeA]NP[Dap](X59)L[Hyp]W[Dab](X59)[Trp(1-CH2COOH)][NMeNle][NMeNle]LCG-NH2; thioether N-14) it is 6.4 nM. `CCCC[C@H]1C(=O)N(C)[C@@H](CCCC)C(=O)N[C@@H](CC(C)C)C(=O)N[C@H](C(=O)NCC(N)=O)CSCC(=O)N[C@@H](Cc2ccc(O)cc2)C(=O)N(C)[C@@H](C)C(=O)N[C@@H](CC(N)=O)C(=O)N2CCC[C@H]2C(=O)N[C@@H](CNC(=O)c2ccc3ccccc3c2)C(=O)N[C@@H](CC(C)C)C(=O)N2C[C@H](O)C[C@H]2C(=O)N[C@@H](Cc2c[nH]c3ccccc23)C(=O)N[C@@H](CCNC(=O)c2ccc3ccccc3c2)C(=O)N[C@@H](Cc2cn(CC(=O)OC)c3ccccc23)C(=O)N1C` [Example 3009] ({CH2CO}-Y[NMeA]NP[Dap](2Naphthoyl)L[Hyp]W[Dab](2Naphthoyl)[Trp(1-CH2CO2Me)][NMeNle][NMeNle]LCG-NH2; thioether N-14): the half-maximal inhibitory concentration (IC50) is 9 nM. The same measure, in the same setting: with `CCCC[C@H]1C(=O)N(C)[C@@H](CCCC)C(=O)N[C@@H](CC(C)C)C(=O)N[C@H](C(=O)NCC(N)=O)CSCC(=O)N[C@@H](Cc2ccc(O)cc2)C(=O)N(C)[C@@H](C)C(=O)N[C@@H](CC(N)=O)C(=O)N2CCC[C@H]2C(=O)N[C@@H](CNC(=O)c2ccnc3ccc(OC)cc23)C(=O)N[C@@H](CC(C)C)C(=O)N2C[C@H](O)C[C@H]2C(=O)N[C@@H](Cc2c[nH]c3ccccc23)C(=O)N[C@@H](CCNC(=O)c2ccnc3ccc(OC)cc23)C(=O)N[C@@H](Cc2cn(CC(=O)OC)c3ccccc23)C(=O)N1C` [Example 3010] ({CH2CO}-Y[NMeA]NP[Dap](X72)L[Hyp]W[Dab](X72)[Trp(1-CH2CO2Me)][NMeNle][NMeNle]LCG-NH2; thioether N-14) the figure was 7.8 nM. The same measure, in the same setting: the figure for `CCCC[C@H]1C(=O)N(C)[C@@H](CCCC)C(=O)N[C@@H](CC(C)C)C(=O)N[C@H](C(=O)NCC(N)=O)CSCC(=O)N[C@@H](Cc2ccc(O)cc2)C(=O)N(C)[C@@H](C)C(=O)N[C@@H](CC(N)=O)C(=O)N2CCC[C@H]2C(=O)N[C@@H](CNC(=O)c2ccc3ccoc3c2)C(=O)N[C@@H](CC(C)C)C(=O)N2C[C@H](O)C[C@H]2C(=O)N[C@@H](Cc2c[nH]c3ccccc23)C(=O)N[C@@H](CCNC(=O)c2ccc3ccoc3c2)C(=O)N[C@@H](Cc2cn(CC(=O)OC)c3ccccc23)C(=O)N1C` [Example 3011] ({CH2CO}-Y[NMeA]NP[Dap](X48)L[Hyp]W[Dab](X48)[Trp(1-CH2CO2Me)][NMeNle][NMeNle]LCG-NH2; thioether N-14) is 8.2 nM; for `CCCC[C@H]1C(=O)N(C)[C@@H](CCCC)C(=O)N[C@@H](CC(C)C)C(=O)N[C@H](C(=O)NCC(N)=O)CSCC(=O)N[C@@H](Cc2ccc(O)cc2)C(=O)N(C)[C@@H](C)C(=O)N[C@@H](CC(N)=O)C(=O)N2CCC[C@H]2C(=O)N[C@@H](CNC(=O)c2cc3ccccc3o2)C(=O)N[C@@H](CC(C)C)C(=O)N2C[C@H](O)C[C@H]2C(=O)N[C@@H](Cc2c[nH]c3ccccc23)C(=O)N[C@@H](CCNC(=O)c2cc3ccccc3o2)C(=O)N[C@@H](Cc2cn(CC(=O)OC)c3ccccc23)C(=O)N1C` [Example 3012] ({CH2CO}-Y[NMeA]NP[Dap](Benzofuran(2-CO))L[Hyp]W[Dab](Benzofuran(2-CO))[Trp(1-CH2CO2Me)][NMeNle][NMeNle]LCG-NH2; thioether N-14) it is 5.3 nM; for `CCCC[C@H]1C(=O)N(C)[C@@H](CCCC)C(=O)N[C@@H](CC(C)C)C(=O)N[C@H](C(=O)NCC(N)=O)CSCC(=O)N[C@@H](Cc2ccc(O)cc2)C(=O)N(C)[C@@H](C)C(=O)N[C@@H](CC(N)=O)C(=O)N2CCC[C@H]2C(=O)N[C@@H](CNC(=S)Nc2ccc3ccccc3c2)C(=O)N[C@@H](CC(C)C)C(=O)N2C[C@H](O)C[C@H]2C(=O)N[C@@H](Cc2c[nH]c3ccccc23)C(=O)N[C@@H](CCNC(=S)Nc2ccc3ccccc3c2)C(=O)N[C@@H](Cc2cn(CC(=O)O)c3ccccc23)C(=O)N1C` [Example 3014] ({CH2CO}-Y[NMeA]NP[Dap](X12)L[Hyp]W[Dab](X12)[Trp(1-CH2COOH)][NMeNle][NMeNle]LCG-NH2; thioether N-14) it is 4.9 nM.
